# Measured values reported in PMC10648875 (Antimicrobial Agents and Chemotherapy, 2023).
# Where two headings read alike, the source gives them in different places.
# How the values were obtained:
# [1] = system: PAM4821 producing CTX-M-25; assay: MIC, engineered isogenic strain; format: cell-based, P. aeruginosa; conditions: CTX-M-25, class A; BLIs at fixed 4 µg/mL
# [2] = system: PAM4889 producing IMP-26; assay: MIC, engineered isogenic strain; format: cell-based, P. aeruginosa; conditions: IMP-26, class B; BLIs at fixed 4 µg/mL
# [3] = system: PAM4175 (no β-lactamase); assay: MIC, engineered isogenic strain; format: cell-based, P. aeruginosa; conditions: BLIs at fixed 4 µg/mL
# [4] = system: PAM4883 producing GIM-1; assay: MIC, engineered isogenic strain; format: cell-based, P. aeruginosa; conditions: GIM-1, class B; BLIs at fixed 4 µg/mL
# [5] = system: PAM4196 producing IMP-13; assay: MIC, engineered isogenic strain; format: cell-based, P. aeruginosa; conditions: IMP-13, class B; BLIs at fixed 4 µg/mL
# [6] = system: PAM4840 producing OXY-6–2; assay: MIC, engineered isogenic strain; format: cell-based, P. aeruginosa; conditions: OXY-6–2, class A; BLIs at fixed 4 µg/mL
# [7] = system: PAM4874 producing SHV-12; assay: MIC, engineered isogenic strain; format: cell-based, P. aeruginosa; conditions: SHV-12, class A; BLIs at fixed 4 µg/mL
# [8] = system: PAM4842 producing PER-2; assay: MIC, engineered isogenic strain; format: cell-based, P. aeruginosa; conditions: PER-2, class A; BLIs at fixed 4 µg/mL
# [9] = system: PAM4689 producing KPC-3; assay: MIC, engineered isogenic strain; format: cell-based, P. aeruginosa; conditions: KPC-3, class A; BLIs at fixed 4 µg/mL
# [10] = system: PAM4879 producing CcrA; assay: MIC, engineered isogenic strain; format: cell-based, P. aeruginosa; conditions: class B, BLIs at fixed 4 µg/mL
# [11] = system: PAM4890 producing IMP-19; assay: MIC, engineered isogenic strain; format: cell-based, P. aeruginosa; conditions: IMP-19, class B; BLIs at fixed 4 µg/mL
# [12] = system: PAM4908 producing VEB-1; assay: MIC, engineered isogenic strain; format: cell-based, P. aeruginosa; conditions: VEB-1, class A; BLIs at fixed 4 µg/mL
# [13] = system: PAM4869 producing PDC-1; assay: MIC, engineered isogenic strain; format: cell-based, P. aeruginosa; conditions: PDC-1, class C; BLIs at fixed 4 µg/mL
# [14] = system: PAM4876 producing OXA-72; assay: MIC, engineered isogenic strain; format: cell-based, P. aeruginosa; conditions: OXA-72, class D; BLIs at fixed 4 µg/mL
# [15] = system: carbapenem-resistant strains of Enterobacterales with cefepime-taniborbactam MIC >8 µg/mL; assay: MIC testing of CRE with reduced cefepime-taniborbactam susceptibility (Table 6, Fig 1); format: cell-based
# Method: Isolates were tested for antimicrobial susceptibility using the broth microdilution methodology per CLSI M07 (2018) guidelines ([40]). JMI Laboratories produced frozen-form 96-well panels with cation-adjusted Mueller-Hinton broth as the testing medium. Current CLSI quality assurance practices were followed when performing the susceptibility tests. MIC values were validated by concurrently testing the following CLSI-recommended ([27]) QC reference strains: E. coli NCTC 13353 (CTX-M-15), Klebsiella pneumoniae ATCC BAA-2814 (KPC-3), Klebsiella pneumoniae ATCC BAA-1705 (KPC-2), and K. pneumoniae ATCC 700603 (SHV-18). The inoculum density during susceptibility testing was monitored by bacterial colony counts. Where applicable, QC ranges for tested reference strains were those approved or published by the CLSI ([27]).
# [16] = system: PAM4884 producing ADC-181; assay: MIC, engineered isogenic strain; format: cell-based, P. aeruginosa; conditions: ADC-181, class C; BLIs at fixed 4 µg/mL
# [17] = system: PAM4179 producing NDM-1; assay: MIC, engineered isogenic strain; format: cell-based, P. aeruginosa; conditions: NDM-1, class B; BLIs at fixed 4 µg/mL
# [18] = system: carbapenem-resistant Enterobacterales (subset of 507 isolates); assay: organism not typed; format: cell-based; conditions: xeruborbactam and vaborbactam fixed 8 mg/L, all other BLIs 4 mg/L; for MIC50: read-out: MIC50; for MIC90: read-out: MIC90
# [19] = system: PAM4885 producing SPM-1; assay: MIC, engineered isogenic strain; format: cell-based, P. aeruginosa; conditions: SPM-1, class B; BLIs at fixed 4 µg/mL
# [20] = system: PAM4745 producing P99; assay: MIC, engineered isogenic strain; format: cell-based, P. aeruginosa; conditions: P99, class C; BLIs at fixed 4 µg/mL
# [21] = system: PAM4198 producing IMP-15; assay: MIC, engineered isogenic strain; format: cell-based, P. aeruginosa; conditions: IMP-15, class B; BLIs at fixed 4 µg/mL
# [22] = system: PAM4795 producing VIM-1; assay: MIC, engineered isogenic strain; format: cell-based, P. aeruginosa; conditions: VIM-1, class B; BLIs at fixed 4 µg/mL
# [23] = system: PAM4825 producing MIR-1; assay: MIC, engineered isogenic strain; format: cell-based, P. aeruginosa; conditions: MIR-1, class C; BLIs at fixed 4 µg/mL
# [24] = system: ESBL-producing and carbapenem-resistant Enterobacterales (All, N = 1028); assay: organism not typed; format: cell-based; conditions: for MIC50: read-out: MIC50; for MIC90: read-out: MIC90
# [25] = system: PAM4878 producing TEM-10; assay: MIC, engineered isogenic strain; format: cell-based, P. aeruginosa; conditions: TEM-10, class A; BLIs at fixed 4 µg/mL
structure (smiles),measurement,setting,value
"CO/N=C(\C(=O)N[C@@H]1C(=O)N2C(C(=O)[O-])=C(C[N+]3(C)CCCC3)CS[C@H]12)c1csc(N)n1 [FEP, cefepime]",MIC,[1],> 64 µg/mL
same,MIC,[2],64 µg/mL
same,MIC,[3],0.25 µg/mL
same,MIC,[4],8 µg/mL
same,MIC,[5],16 µg/mL
same,MIC,[6],8 µg/mL
same,MIC,[7],64 µg/mL
same,MIC,[8],64 µg/mL
same,MIC,[9],> 64 µg/mL
same,MIC,[10],16 µg/mL
same,MIC,[11],64 µg/mL
same,MIC,[12],> 64 µg/mL
same,MIC,[13],4 µg/mL
same,MIC,[14],2 µg/mL
same,MIC50,[15],64 µg/mL
same,MIC90,[15],> 64 µg/mL
same,MIC50,[15]; All MBL (N = 129),64 µg/mL
same,MIC90,[15]; All MBL (N = 129),> 64 µg/mL
same,MIC50,[15]; IMP (N = 20),32 µg/mL
same,MIC90,[15]; IMP (N = 20),> 64 µg/mL
same,MIC50,[15]; KPC and OXA-48 (N = 12),64 µg/mL
same,MIC90,[15]; KPC and OXA-48 (N = 12),> 64 µg/mL
same,MIC50,[15]; MBL negative (N = 34),64 µg/mL
same,MIC90,[15]; MBL negative (N = 34),> 64 µg/mL
same,MIC50,[15]; NDN (N = 101),64 µg/mL
same,MIC90,[15]; NDN (N = 101),> 64 µg/mL
same,MIC50,[15]; Non-CP CRE (N = 22),64 µg/mL
same,MIC90,[15]; Non-CP CRE (N = 22),> 64 µg/mL
same,MIC50,[15]; VIM (N = 8),> 64 µg/mL
same,MIC,[16],0.5 µg/mL
same,MIC,[17],> 64 µg/mL
same,MIC50,[18]; CRE (N = 507),> 64 µg/mL
same,MIC90,[18]; CRE (N = 507),> 64 µg/mL
same,MIC50,[18]; KPC (N = 193),> 64 µg/mL
same,MIC90,[18]; KPC (N = 193),> 64 µg/mL
same,MIC50,[18]; MBL (N = 168),> 64 µg/mL
same,MIC90,[18]; MBL (N = 168),> 64 µg/mL
same,MIC50,[18]; Non-CP CRE (N = 50),> 64 µg/mL
same,MIC90,[18]; Non-CP CRE (N = 50),> 64 µg/mL
same,MIC50,[18]; OXA-48-like (N = 96),> 64 µg/mL
same,MIC90,[18]; OXA-48-like (N = 96),> 64 µg/mL
same,MIC,[19],> 64 µg/mL
same,MIC,[20],8 µg/mL
same,MIC,[21],16 µg/mL
same,MIC,[22],> 64 µg/mL
same,MIC,[23],2 µg/mL
same,MIC50,[24],64 µg/mL
same,MIC90,[24],> 64 µg/mL
same,MIC,[25],16 µg/mL
"C[C@@H](O)[C@H]1C(=O)N2C(C(=O)O)=C(S[C@@H]3CN[C@H](C(=O)N(C)C)C3)[C@H](C)[C@H]12 [MEM, meropenem]",MIC,[1],0.5 µg/mL
same,MIC,[2],8 µg/mL
same,MIC,[3],0.125 ^ a
same,MIC,[4],32 µg/mL
same,MIC,[5],1 µg/mL
same,MIC,[6],0.25 µg/mL
same,MIC,[7],0.25 µg/mL
same,MIC,[8],0.125 µg/mL
same,MIC,[9],64 µg/mL
same,MIC,[10],2 µg/mL
same,MIC,[11],1 µg/mL
same,MIC,[12],0.5 µg/mL
same,MIC,[13],0.5 µg/mL
same,MIC,[14],2 µg/mL
same,MIC50,[15],> 64 µg/mL
same,MIC90,[15],> 64 µg/mL
same,MIC50,[15]; All MBL (N = 129),> 64 µg/mL
same,MIC90,[15]; All MBL (N = 129),> 64 µg/mL
same,MIC50,[15]; IMP (N = 20),16 µg/mL
same,MIC90,[15]; IMP (N = 20),64 µg/mL
same,MIC50,[15]; KPC and OXA-48 (N = 12),32 µg/mL
same,MIC90,[15]; KPC and OXA-48 (N = 12),> 64 µg/mL
same,MIC50,[15]; MBL negative (N = 34),16 µg/mL
same,MIC90,[15]; MBL negative (N = 34),> 64 µg/mL
same,MIC50,[15]; NDN (N = 101),> 64 µg/mL
same,MIC90,[15]; NDN (N = 101),> 64 µg/mL
same,MIC50,[15]; Non-CP CRE (N = 22),16 µg/mL
same,MIC90,[15]; Non-CP CRE (N = 22),32 µg/mL
same,MIC50,[15]; VIM (N = 8),> 64 µg/mL
same,MIC,[16],0.125 µg/mL
same,MIC,[17],32 µg/mL
same,MIC50,[18]; CRE (N = 507),0.5 µg/mL
same,MIC90,[18]; CRE (N = 507),> 64 µg/mL
same,MIC50,[18]; KPC (N = 193),16 µg/mL
same,MIC90,[18]; KPC (N = 193),> 64 µg/mL
same,MIC50,[18]; MBL (N = 168),64 µg/mL
same,MIC90,[18]; MBL (N = 168),> 64 µg/mL
same,MIC50,[18]; Non-CP CRE (N = 50),4 µg/mL
same,MIC90,[18]; Non-CP CRE (N = 50),16 µg/mL
same,MIC50,[18]; OXA-48-like (N = 96),16 µg/mL
same,MIC90,[18]; OXA-48-like (N = 96),64 µg/mL
same,MIC,[19],32 µg/mL
same,MIC,[20],1 µg/mL
same,MIC,[21],1 µg/mL
same,MIC,[22],4 µg/mL
same,MIC,[23],0.5 µg/mL
same,MIC50,[24],0.5 µg/mL
same,MIC90,[24],> 64 µg/mL
same,MIC,[25],0.125 µg/mL
